# According to the supplement of paper PMC10307832:
# Tests used:
# Test in all cases: relative viability (nuclei count vs DMSO), 5 days (fraction); higher = more cells survive
# Dinaciclib + Navitoclax = compound: CCc1cnn2c(NCc3ccc[n+]([O-])c3)cc(N3CCCC[C@H]3CCO)nc12 [Dinaciclib] + CC1(C)CCC(c2ccc(Cl)cc2)=C(CN2CCN(c3ccc(C(=O)NS(=O)(=O)c4ccc(N[C@H](CCN5CCOCC5)CSc5ccccc5)c(S(=O)(=O)C(F)(F)F)c4)cc3)CC2)C1 [Navitoclax] (partner 0.5 µM)
# Method in brief: (§1)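 For relative viability, nuclei counts in treated wells were divided by those in vehicle wells. Lung cancer cell lines had been pin-tool dosed in 1536-well plates the day after seeding and cultured for 5 days, then fixed and stained in one step (final 0.05% Triton X-100, 1% formaldehyde, 1 ug/ml Hoechst) and imaged at 4×. Doses were one drug alone or a fixed anchor-drug dose plus five library-drug doses (not always all listed) in √10 steps, and values are duplicate-plate medians.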
# Dinaciclib + Decitabine = compound: CCc1cnn2c(NCc3ccc[n+]([O-])c3)cc(N3CCCC[C@H]3CCO)nc12 [Dinaciclib] + Nc1ncn([C@H]2C[C@H](O)[C@@H](CO)O2)c(=O)n1 [Decitabine] (partner 2 µM)
# Method in brief: as §1
# Dinaciclib + AZD7762 = compound: CCc1cnn2c(NCc3ccc[n+]([O-])c3)cc(N3CCCC[C@H]3CCO)nc12 [Dinaciclib] + NC(=O)Nc1cc(-c2cccc(F)c2)sc1C(=O)N[C@H]1CCCNC1 [AZD7762] (partner 0.2 µM)
# Method in brief: as §1
# Dinaciclib + Trametinib = compound: CCc1cnn2c(NCc3ccc[n+]([O-])c3)cc(N3CCCC[C@H]3CCO)nc12 [Dinaciclib] + CC(=O)Nc1cccc(-n2c(=O)n(C3CC3)c(=O)c3c(Nc4ccc(I)cc4F)n(C)c(=O)c(C)c32)c1 [Trametinib] (partner 0.02 µM)
# Method in brief: as §1
# Dinaciclib + Luminespib = compound: CCc1cnn2c(NCc3ccc[n+]([O-])c3)cc(N3CCCC[C@H]3CCO)nc12 [Dinaciclib] + CCNC(=O)c1noc(-c2cc(C(C)C)c(O)cc2O)c1-c1ccc(CN2CCOCC2)cc1 [Luminespib] (partner 0.01 µM)
# Method in brief: as §1
Cell Line,relative viability (Dinaciclib + Navitoclax; first compound 0.009487 µM),relative viability (Dinaciclib + Navitoclax; first compound 0.03 µM),relative viability (Dinaciclib + Navitoclax; first compound 0.09487 µM),relative viability (Dinaciclib + Navitoclax; first compound 0.3 µM),relative viability (Dinaciclib + Decitabine; first compound 0.009487 µM),relative viability (Dinaciclib + Decitabine; first compound 0.03 µM),relative viability (Dinaciclib + Decitabine; first compound 0.09487 µM),relative viability (Dinaciclib + Decitabine; first compound 0.3 µM),relative viability (Dinaciclib + AZD7762; first compound 0.009487 µM),relative viability (Dinaciclib + AZD7762; first compound 0.03 µM),relative viability (Dinaciclib + AZD7762; first compound 0.09487 µM),relative viability (Dinaciclib + AZD7762; first compound 0.3 µM),relative viability (Dinaciclib + Trametinib; first compound 0.009487 µM),relative viability (Dinaciclib + Trametinib; first compound 0.03 µM),relative viability (Dinaciclib + Trametinib; first compound 0.09487 µM),relative viability (Dinaciclib + Trametinib; first compound 0.3 µM),relative viability (Dinaciclib + Luminespib; first compound 0.009487 µM),relative viability (Dinaciclib + Luminespib; first compound 0.03 µM),relative viability (Dinaciclib + Luminespib; first compound 0.09487 µM),relative viability (Dinaciclib + Luminespib; first compound 0.3 µM)
HCC-366,1.01,0.11,0.0149,0.0168,0.237,0.133,0.0321,0.0394,0.406,0.0244,0.0268,0.0232,0.274,0.0898,0.0214,0.0233,–,–,–,–
HCC-827,1.02,0.699,0.127,0.108,0.351,0.131,0.12,0.137,0.243,0.162,0.105,0.143,0.511,0.186,0.12,0.135,0.805,0.108,0.103,0.107
HOP-62,0.967,0.126,0.0367,0.042,0.204,0.21,0.0932,0.0689,0.706,0.225,0.0545,0.068,0.492,0.361,0.0804,0.0808,0.778,0.193,0.0765,0.0749
LC-2-ad,0.401,0.0677,0.067,0.0747,0.745,0.541,0.158,0.151,0.87,0.118,0.11,0.128,0.921,0.405,0.148,0.15,0.877,0.23,0.23,0.178
LCLC-103H,–,–,–,–,0.754,0.648,0.297,0.242,0.881,0.351,0.279,0.197,0.674,0.659,0.255,0.249,1.08,0.473,0.12,0.102
NCI-H358,–,–,–,–,0.157,0.0817,0.075,0.0916,0.548,0.16,0.151,0.188,0.109,0.0821,0.0838,0.102,0.276,0.0982,0.0922,0.0842
NCI-H520,0.69,0.12,0.12,0.117,0.47,0.131,0.155,0.168,–,–,–,–,0.506,0.104,0.0836,0.104,0.239,0.231,0.222,0.217
NCI-H522,–,–,–,–,0.688,0.65,0.347,0.326,0.899,0.991,0.359,0.211,0.757,0.795,0.255,0.251,1.2,0.653,0.465,0.276
NCI-H650,–,–,–,–,0.308,0.204,0.118,0.124,1.08,0.153,0.148,0.173,0.964,0.189,0.122,0.13,0.54,0.185,0.112,0.0731
